{"source": "patent US12121505B2", "about": "“Fap-activated therapeutic agents, and uses related thereto” (BACH BIOSCIENCES, LLC, priority 2014, dated 2024)", "key": {"FAP [1]": {"molecular_target": "T1, FAP (Homo sapiens, UniProt Q12884)", "T1 sequence (Q12884 1-760)": "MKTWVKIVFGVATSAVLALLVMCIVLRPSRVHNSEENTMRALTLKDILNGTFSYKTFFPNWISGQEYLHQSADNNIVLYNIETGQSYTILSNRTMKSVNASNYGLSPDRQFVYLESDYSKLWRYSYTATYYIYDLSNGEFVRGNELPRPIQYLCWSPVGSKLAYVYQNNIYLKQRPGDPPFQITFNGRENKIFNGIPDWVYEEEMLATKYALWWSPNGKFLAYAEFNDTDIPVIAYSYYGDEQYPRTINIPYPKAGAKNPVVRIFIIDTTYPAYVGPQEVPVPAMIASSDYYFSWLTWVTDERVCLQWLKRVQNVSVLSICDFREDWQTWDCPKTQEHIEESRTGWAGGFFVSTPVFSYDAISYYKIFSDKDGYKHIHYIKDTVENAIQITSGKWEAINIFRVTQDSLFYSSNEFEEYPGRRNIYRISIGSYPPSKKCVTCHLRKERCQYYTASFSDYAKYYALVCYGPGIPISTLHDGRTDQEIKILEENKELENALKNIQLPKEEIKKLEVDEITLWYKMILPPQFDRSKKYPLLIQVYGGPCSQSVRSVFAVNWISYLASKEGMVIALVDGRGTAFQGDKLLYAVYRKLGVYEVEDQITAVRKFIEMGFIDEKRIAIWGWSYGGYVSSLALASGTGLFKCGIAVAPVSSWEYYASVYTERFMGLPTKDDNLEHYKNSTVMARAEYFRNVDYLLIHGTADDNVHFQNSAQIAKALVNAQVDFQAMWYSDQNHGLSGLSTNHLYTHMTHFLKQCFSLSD", "format": "biochemical", "conditions": "1.34×10^−8 M FAP, 37° C.", "method": "Michaelis-Menten enzyme kinetics for FAP were measured using a SpectraMax M2e microplate reader (Molecular Devices, Sunnyvale, CA, USA). The assays were performed in FAP buffer (50 mM […], 140 mM NaCl, pH 7.5) at 25° C., and the fluorescence continuously monitored at excitation and emission wavelengths of 380 and 460 nm, respectively. Kinetic constants (kcat and Km) were determined using GP-AMC (Bachem, Torrance, CA, USA), Ac-(D)-AP-AFC (MP Biomedicals, Solon, OH, USA) and test article concentrations equivalent to 0.1-5 times their respective Km values, and with 5-10 nM enzyme. All assays were performed in triplicate, and the results were calculated with a nonlinear regression analysis, relying on a Michaelis-Menten curve fit using GraphPad software.\n(§1) 3099DOX at various concentrations ranging from 8.5×10^−6 M to 6.9×10^−4 M was incubated with 1.34×10^−8 M FAP or PREP at 37° C., and released doxorubicin measured."}, "FAP [2]": {"molecular_target": "T1, FAP", "assay": "Specificity of activation: 24 h digestion with FAP", "format": "biochemical", "conditions": "100 μM prodrug, 37° C.", "method": "(§2) Total doxorubicin was measured for each assay."}, "PREP [3]": {"molecular_target": "T2, PREP (Homo sapiens, UniProt P48147)", "T2 sequence (P48147 1-710)": "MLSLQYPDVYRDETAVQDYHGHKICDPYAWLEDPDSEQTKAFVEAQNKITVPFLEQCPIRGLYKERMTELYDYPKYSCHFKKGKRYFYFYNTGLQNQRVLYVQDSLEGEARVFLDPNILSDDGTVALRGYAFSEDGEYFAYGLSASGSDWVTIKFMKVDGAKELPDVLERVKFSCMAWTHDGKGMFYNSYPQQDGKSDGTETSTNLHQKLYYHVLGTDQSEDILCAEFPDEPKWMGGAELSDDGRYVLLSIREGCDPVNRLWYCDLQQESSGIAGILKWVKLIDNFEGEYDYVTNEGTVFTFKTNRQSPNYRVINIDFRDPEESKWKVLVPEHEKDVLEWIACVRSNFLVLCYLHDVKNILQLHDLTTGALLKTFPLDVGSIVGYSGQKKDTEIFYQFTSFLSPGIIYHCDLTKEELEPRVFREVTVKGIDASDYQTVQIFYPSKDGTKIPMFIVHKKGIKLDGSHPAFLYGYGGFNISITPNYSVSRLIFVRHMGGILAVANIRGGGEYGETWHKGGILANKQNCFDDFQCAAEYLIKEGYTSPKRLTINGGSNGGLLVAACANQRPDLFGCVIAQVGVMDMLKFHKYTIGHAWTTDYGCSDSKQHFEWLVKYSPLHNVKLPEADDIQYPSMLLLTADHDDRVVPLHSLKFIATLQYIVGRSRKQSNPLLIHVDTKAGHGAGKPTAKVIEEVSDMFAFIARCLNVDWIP", "format": "biochemical", "conditions": "1.34×10^−8 M PREP, 37° C.", "method": "as §1"}, "[4]": {"format": "physicochemical", "method": "• (i) LCMS of compound 3099DOX. • 0-3 min: 2% B; 3-20 min: 2-98% B; 20-25 min: 98% B. • Ran with 1.8 μm particle size column on the Old LCMS. • Calc."}, "FAP [5]": {"molecular_target": "T1, FAP", "assay": "Rate of recombinant FAP activity on doxorubicin prodrugs", "conditions": "37° C.", "description": "3099DOX, z-GP-DOX, and 3996DOX were incubated in the presence of recombinant FAP at 37° C. for 24 hours. Released doxorubicin was measured at 1, 4, 12, and 24 hours."}, "[6]": {"conditions": "100 μM prodrug, 37° C., 12 h"}, "PREP [7]": {"molecular_target": "T2, PREP", "assay": "Specificity of activation: 24 h digestion with PREP", "format": "biochemical", "conditions": "100 μM prodrug, 37° C.", "method": "as §2"}, "[8]": {"molecular_target": "dipeptidyl peptidase IV (DPP IV) (Homo sapiens, UniProt P27487)", "sequence (P27487 whole entry, species assumed)": "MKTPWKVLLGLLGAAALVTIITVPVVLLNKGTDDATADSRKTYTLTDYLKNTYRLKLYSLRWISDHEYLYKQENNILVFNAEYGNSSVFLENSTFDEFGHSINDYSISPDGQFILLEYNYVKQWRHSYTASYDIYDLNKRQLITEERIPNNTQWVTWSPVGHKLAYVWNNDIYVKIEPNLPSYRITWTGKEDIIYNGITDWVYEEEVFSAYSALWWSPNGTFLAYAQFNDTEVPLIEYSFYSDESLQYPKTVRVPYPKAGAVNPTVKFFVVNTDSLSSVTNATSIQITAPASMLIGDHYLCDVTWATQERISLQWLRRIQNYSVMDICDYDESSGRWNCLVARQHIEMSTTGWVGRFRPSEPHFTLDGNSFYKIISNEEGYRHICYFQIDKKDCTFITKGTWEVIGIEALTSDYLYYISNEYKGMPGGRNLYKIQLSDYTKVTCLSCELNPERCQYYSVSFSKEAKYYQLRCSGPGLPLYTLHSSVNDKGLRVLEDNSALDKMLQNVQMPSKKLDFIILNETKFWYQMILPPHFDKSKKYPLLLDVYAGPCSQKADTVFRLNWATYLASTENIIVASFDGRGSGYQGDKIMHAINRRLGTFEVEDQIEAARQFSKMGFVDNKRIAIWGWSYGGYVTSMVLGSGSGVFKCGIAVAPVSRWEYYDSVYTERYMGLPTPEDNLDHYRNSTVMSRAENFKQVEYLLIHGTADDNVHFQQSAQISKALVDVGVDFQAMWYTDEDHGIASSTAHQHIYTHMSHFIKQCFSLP", "assay": "Specificity of activation: 24 h digestion with DPP IV", "format": "biochemical", "conditions": "100 μM prodrug, 37° C.", "method": "as §2"}, "PREP [9]": {"molecular_target": "T2, PREP", "assay": "In vitro PREP inhibition assay", "format": "biochemical"}, "DPPIV": {"molecular_target": "DPPIV (Homo sapiens, UniProt P27487)", "sequence (P27487 whole entry, species assumed)": "as above", "assay": "In vitro DPPIV inhibition assay", "format": "biochemical"}, "DPP9": {"molecular_target": "DPP9 (Homo sapiens, UniProt Q86TI2)", "sequence (Q86TI2 whole entry, species assumed)": "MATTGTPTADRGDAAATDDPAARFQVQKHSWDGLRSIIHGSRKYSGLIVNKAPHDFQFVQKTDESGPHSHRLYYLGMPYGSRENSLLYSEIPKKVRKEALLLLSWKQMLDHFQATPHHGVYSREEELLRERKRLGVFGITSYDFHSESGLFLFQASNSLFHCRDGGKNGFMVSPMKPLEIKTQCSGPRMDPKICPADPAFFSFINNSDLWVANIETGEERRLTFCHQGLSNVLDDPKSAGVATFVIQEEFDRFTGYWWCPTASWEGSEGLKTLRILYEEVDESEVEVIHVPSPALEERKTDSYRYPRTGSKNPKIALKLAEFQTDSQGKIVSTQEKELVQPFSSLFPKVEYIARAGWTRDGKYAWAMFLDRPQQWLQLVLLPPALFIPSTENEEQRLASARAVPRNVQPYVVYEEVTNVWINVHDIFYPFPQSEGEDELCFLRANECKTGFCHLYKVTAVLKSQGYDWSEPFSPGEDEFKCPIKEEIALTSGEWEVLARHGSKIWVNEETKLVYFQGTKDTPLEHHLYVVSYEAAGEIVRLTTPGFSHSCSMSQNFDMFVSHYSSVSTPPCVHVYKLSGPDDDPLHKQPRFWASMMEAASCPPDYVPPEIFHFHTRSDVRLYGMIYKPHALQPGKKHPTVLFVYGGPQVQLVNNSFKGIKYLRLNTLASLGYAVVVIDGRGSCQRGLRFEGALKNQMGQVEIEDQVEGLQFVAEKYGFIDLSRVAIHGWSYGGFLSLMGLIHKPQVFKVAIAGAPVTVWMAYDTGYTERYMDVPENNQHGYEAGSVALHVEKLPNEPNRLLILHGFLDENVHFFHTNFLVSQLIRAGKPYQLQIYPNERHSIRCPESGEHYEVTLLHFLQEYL", "assay": "In vitro DPP9 inhibition assay", "format": "biochemical"}, "DPP8": {"molecular_target": "DPP8 (Homo sapiens, UniProt Q6V1X1)", "sequence (Q6V1X1 whole entry, species assumed)": "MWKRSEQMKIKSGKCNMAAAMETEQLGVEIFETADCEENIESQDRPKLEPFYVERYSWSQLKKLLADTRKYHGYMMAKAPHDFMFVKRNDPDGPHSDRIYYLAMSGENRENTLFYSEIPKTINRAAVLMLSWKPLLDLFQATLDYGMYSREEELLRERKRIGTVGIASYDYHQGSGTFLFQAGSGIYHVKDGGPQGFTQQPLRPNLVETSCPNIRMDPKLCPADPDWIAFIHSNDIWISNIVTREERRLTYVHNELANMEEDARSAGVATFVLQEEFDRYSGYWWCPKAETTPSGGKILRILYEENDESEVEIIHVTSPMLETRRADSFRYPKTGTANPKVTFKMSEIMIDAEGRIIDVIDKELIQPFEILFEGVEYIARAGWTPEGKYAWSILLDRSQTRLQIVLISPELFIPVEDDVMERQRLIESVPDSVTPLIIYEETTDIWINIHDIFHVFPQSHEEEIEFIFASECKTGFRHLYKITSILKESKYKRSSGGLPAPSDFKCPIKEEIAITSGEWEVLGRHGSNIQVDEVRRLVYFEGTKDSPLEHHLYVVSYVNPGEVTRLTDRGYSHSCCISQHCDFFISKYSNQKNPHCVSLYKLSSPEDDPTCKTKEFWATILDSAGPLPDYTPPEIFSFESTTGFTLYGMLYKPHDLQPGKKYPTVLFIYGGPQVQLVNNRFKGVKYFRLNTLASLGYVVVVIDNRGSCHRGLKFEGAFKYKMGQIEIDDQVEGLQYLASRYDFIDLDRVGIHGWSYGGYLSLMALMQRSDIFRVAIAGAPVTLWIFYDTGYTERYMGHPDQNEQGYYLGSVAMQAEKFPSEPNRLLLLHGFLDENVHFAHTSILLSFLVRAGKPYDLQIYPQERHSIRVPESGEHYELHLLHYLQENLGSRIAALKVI", "assay": "In vitro DPP8 inhibition assay", "format": "biochemical"}, "DPPII": {"molecular_target": "DPPII (Homo sapiens, UniProt Q9UHL4)", "assay": "In vitro DPPII inhibition assay", "format": "biochemical"}, "FAP [10]": {"molecular_target": "T1, FAP", "assay": "In vitro FAP inhibition assay", "format": "biochemical"}, "FAP [11]": {"molecular_target": "T1, FAP", "assay": "Selectivity of FAP over PREP (5057DOX digest, LCMS)", "format": "biochemical", "conditions": "FIG. 14; 240 nM 5057DOX, 12, 24 or 48 nM enzyme, 37° C.", "method": "Recombinant enzyme (FAP or PREP) was combined, at reaction concentration of 12 nM, 24 nM, or 48 nM, with 240 nM 5057DOX in FAP buffer (50 mM Tris-HCl, pH 7.4, 140 mM NaCl) and incubated at 37° C. Reactions were stopped at 0, 10, 20, or 30 minutes by addition of equal volume of 10 μM Val-boroPro (FAP inhibitor). Doxorubicin was measured by liquid chromatography/mass spectroscopy (LCMS)."}, "FAP [12]": {"molecular_target": "T1, FAP", "assay": "FAP digest of 5057DOX (kinetics)", "format": "biochemical"}}, "note": "Where two headings read alike, the source gives them in different places.", "data": [{"smiles": "COc1cccc2c1C(=O)c1c(O)c3c(c(O)c1C2=O)C[C@@](O)(C(=O)CO)C[C@@H]3O[C@H]1C[C@H](NC(=O)[C@@H]2CCCN2C(=O)[C@@H](C)NC(=O)c2ccncc2)[C@H](O)[C@H](C)O1", "note": "[Compound 3099DOX]", "values": [{"measurement": "Km", "setting": "FAP [1]", "result": 11.2, "unit": "µM"}, {"measurement": "kcat(Vmax/[E])", "setting": "FAP [1]", "result": 0.44, "unit": "s⁻¹"}, {"measurement": "Vmax", "setting": "FAP [1]; released doxorubicin", "result": "5.877e-09", "unit": "M/s"}, {"measurement": "doxorubicin released by FAP", "setting": "FAP [2]", "result": "released from 3099DOX by FAP"}, {"measurement": "activation with PREP", "setting": "PREP [3]", "result": "essentially no activation with PREP"}, {"measurement": "Remaining Purity %", "setting": "[4]; 22° C./72% RH, 1 month", "result": 99.5, "unit": "%"}, {"measurement": "Remaining Purity %", "setting": "[4]; 22° C./72% RH, 1 week", "result": 99.3, "unit": "%"}, {"measurement": "Remaining Purity %", "setting": "[4]; 22° C./72% RH, 2 month", "result": 98.1, "unit": "%"}, {"measurement": "Remaining Purity %", "setting": "[4]; 22° C./72% RH, 3 month", "result": 97.5, "unit": "%"}, {"measurement": "Remaining Purity %", "setting": "[4]; 22° C./72% RH, Day 0", "result": 99.4, "unit": "%"}, {"measurement": "Remaining Purity %", "setting": "[4]; 40° C./75% RH, 1 month", "result": 98.8, "unit": "%"}, {"measurement": "Remaining Purity %", "setting": "[4]; 40° C./75% RH, 1 week", "result": 99.3, "unit": "%"}, {"measurement": "Remaining Purity %", "setting": "[4]; 40° C./75% RH, 2 month", "result": 96.3, "unit": "%"}, {"measurement": "Remaining Purity %", "setting": "[4]; 40° C./75% RH, 3 month", "result": 95.3, "unit": "%"}, {"measurement": "Remaining Purity %", "setting": "[4]; 40° C./75% RH, Day 0", "result": 99.4, "unit": "%"}, {"measurement": "time to reach maximum free doxorubicin", "setting": "FAP [5]", "result": "approximately 8 h"}, {"measurement": "doxorubicin released in mouse muscle lysate", "setting": "[6]", "result": "released essentially no doxorubicin"}, {"measurement": "doxorubicin released by PREP", "setting": "PREP [7]", "result": "neither PREP nor DPP IV"}]}, {"smiles": "COc1cccc2c1C(=O)c1c(O)c3c(c(O)c1C2=O)C[C@@](O)(C(=O)CO)C[C@@H]3O[C@H]1C[C@H](NC(=O)[C@@H]2CCCN2C(=O)CNC(=O)OCc2ccccc2)[C@H](O)[C@H](C)O1", "note": "[z-GP-DOX, reference compound]", "values": [{"measurement": "doxorubicin released by FAP", "setting": "FAP [2]", "result": "A similar amount of doxorubicin was released from z-GP-DOX by FAP and PREP"}, {"measurement": "doxorubicin released by DPP IV", "setting": "[8]", "result": "essentially none by DPP IV"}, {"measurement": "doxorubicin released in mouse muscle lysate", "setting": "[6]", "result": "released a large amount of doxorubicin"}, {"measurement": "doxorubicin released by PREP", "setting": "PREP [7]", "result": "A similar amount of doxorubicin was released from z-GP-DOX by FAP and PREP"}]}, {"smiles": "CC(C)[C@H](NC(=O)OCc1ccc(NC(=O)[C@@H]2CC(F)(F)CN2C(=O)CNC(=O)c2ccnc3ccccc23)cc1)C(=O)N1CCC[C@H]1B(O)O", "note": "[Compound 5181]", "values": [{"measurement": "IC50", "setting": "PREP [9]", "result": 15, "unit": "nM"}, {"measurement": "IC50", "setting": "DPPIV", "result": 860, "unit": "nM"}, {"measurement": "IC50", "setting": "DPP9", "result": 2600, "unit": "nM"}, {"measurement": "IC50", "setting": "DPP8", "result": 7300, "unit": "nM"}, {"measurement": "IC50", "setting": "DPPII", "result": 24000, "unit": "nM"}, {"measurement": "IC50", "setting": "FAP [10]", "result": 110, "unit": "nM"}]}, {"smiles": "COc1cccc2c1C(=O)c1c(O)c3c(c(O)c1C2=O)C[C@@](O)(C(=O)CO)C[C@@H]3O[C@H]1C[C@H](NC(=O)[C@@H]2CC(F)(F)CN2C(=O)CNC(=O)c2ccnc3ccccc23)[C@H](O)[C@H](C)O1", "note": "[Compound 5057DOX]", "values": [{"measurement": "activation by FAP as compared to PREP", "setting": "FAP [11]", "result": "selectively activated by FAP as compared to PREP"}, {"measurement": "Km", "setting": "FAP [12]; assay 6, [FAP] 4.00 × 10^−9M", "result": 11.1, "unit": "µM"}, {"measurement": "Vmax", "setting": "FAP [12]; assay 6, [FAP] 4.00 × 10^−9M", "result": "5.19e-09", "unit": "M/s"}, {"measurement": "kcat(Vmax/[E])", "setting": "FAP [12]; assay 6, [FAP] 4.00 × 10^−9M", "result": "Kcat(Vmax/[E]) 1.30 sec^−1"}, {"measurement": "Kcat", "setting": "FAP [12]; assay 7, [FAP] 1 nM", "result": "Kcat 0.98 sec^−1"}, {"measurement": "Km", "setting": "FAP [12]; assay 7, [FAP] 1 nM", "result": 4.85, "unit": "µM"}, {"measurement": "Vmax", "setting": "FAP [12]; assay 7, [FAP] 1 nM, Dox standards, Daunorubicin internal standard", "result": "Vmax 9.80 × 10^−9M/sec"}]}]}
